In paper PMC11984419, “Differential senolytic inhibition of normal versus Aβ-associated cholinesterases: implications in aging and Alzheimer’s disease” (Aging (Albany NY), 2025):
Counter-ions that a name gives are not always drawn. Like-named read-outs stand apart in the source and are kept apart here.

Legend:
recombinant human AChE = target: T1, recombinant human AChE (Homo sapiens, UniProt P22303); experiment: Enzyme kinetic study (Ellman's assay, Lineweaver-Burk) with AChE; format: biochemical; details: for AChE mode of inhibition: from Lineweaver-Burk plots
T1 construct: purchased MilliporeSigma Canada Ltd. (Oakville, Ontario, Canada)
T1 sequence (P22303 32-614): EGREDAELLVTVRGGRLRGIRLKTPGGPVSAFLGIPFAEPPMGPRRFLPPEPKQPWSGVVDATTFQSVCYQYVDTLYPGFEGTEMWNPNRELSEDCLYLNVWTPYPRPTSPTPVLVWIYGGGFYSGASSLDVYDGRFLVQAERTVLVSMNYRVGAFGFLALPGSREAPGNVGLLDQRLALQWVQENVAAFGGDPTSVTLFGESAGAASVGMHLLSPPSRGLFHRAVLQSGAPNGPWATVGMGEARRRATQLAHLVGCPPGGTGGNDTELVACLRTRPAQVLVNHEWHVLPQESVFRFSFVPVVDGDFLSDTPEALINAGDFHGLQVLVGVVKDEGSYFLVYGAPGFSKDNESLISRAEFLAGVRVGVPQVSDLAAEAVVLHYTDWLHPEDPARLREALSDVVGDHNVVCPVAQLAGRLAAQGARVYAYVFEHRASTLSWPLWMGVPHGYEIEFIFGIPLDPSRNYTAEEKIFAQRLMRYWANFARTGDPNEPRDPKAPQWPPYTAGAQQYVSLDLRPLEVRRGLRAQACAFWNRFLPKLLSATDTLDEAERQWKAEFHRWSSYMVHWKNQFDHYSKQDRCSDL
Procedure: (§1) Enzyme kinetic studies were performed as previously described, using Ellman’s assay. Briefly, in a quartz cuvette (1 cm pathlength), a 0.577 mM DTNB solution in 0.1 M potassium phosphate buffer (1.6 mL, pH 7.0) was combined at room temperature with either recombinant AChE (0.1 mL, 3.7 nM) in 0.005% aqueous gelatin or purified human serum BChE (0.1 mL, 5.85 nM) in 0.005% aqueous gelatin and mixed with a senolytic or nootropic compound (Figure 1) dissolved in 50% (v/v) aqueous acetonitrile (0.05 mL). […] Substrate concentrations were kept constant while the senolytic concentrations varied (0-140 μM). Changes in absorbance (ΔA/min), reflecting the rate of ATChI or BTChI hydrolysis with their respective enzymes, were recorded spectrophotometrically every 5 seconds for 1 minute.
(§2) As done previously, Lineweaver-Burk plots were generated for each senolytic and nootropic compound with the velocity (v) of each reaction determined using Beer’s Law, where v = (ΔA/min)/(εl), ε is the molar extinction coefficient for 5-thio-2-nitrobenzoic acid (TNB) (13600 M^−1 cm^−1), and l is the cuvette pathlength (1 cm). Replotting the calculated slopes from each double reciprocal plot against senolytic and nootropic concentrations, gave the inhibitor constant (Ki, M) as the x-intercept. The mode of inhibition (competitive, non-competitive, mixed non-competitive, or uncompetitive) was also determined by analyzing the relational pattern of linear regressions for varying concentrations of the same senolytic or nootropic compound. Enzyme kinetic experiments were performed in triplicate and kinetic parameter values were averaged.

[1] = target: T2, BChE purified from human plasma (Homo sapiens, UniProt P06276); experiment: Enzyme kinetic study (Ellman's assay, Lineweaver-Burk) with BChE; format: biochemical; details: for BChE mode of inhibition: from Lineweaver-Burk plots
T2 construct: BChE purified from human plasma was a gift from Dr. Oksana Lockridge; tissue gift from Dr. Oksana Lockridge (Eppley Institute, University of Nebraska Medical Center); host or cells: human plasma
T2 sequence (P06276 29-602): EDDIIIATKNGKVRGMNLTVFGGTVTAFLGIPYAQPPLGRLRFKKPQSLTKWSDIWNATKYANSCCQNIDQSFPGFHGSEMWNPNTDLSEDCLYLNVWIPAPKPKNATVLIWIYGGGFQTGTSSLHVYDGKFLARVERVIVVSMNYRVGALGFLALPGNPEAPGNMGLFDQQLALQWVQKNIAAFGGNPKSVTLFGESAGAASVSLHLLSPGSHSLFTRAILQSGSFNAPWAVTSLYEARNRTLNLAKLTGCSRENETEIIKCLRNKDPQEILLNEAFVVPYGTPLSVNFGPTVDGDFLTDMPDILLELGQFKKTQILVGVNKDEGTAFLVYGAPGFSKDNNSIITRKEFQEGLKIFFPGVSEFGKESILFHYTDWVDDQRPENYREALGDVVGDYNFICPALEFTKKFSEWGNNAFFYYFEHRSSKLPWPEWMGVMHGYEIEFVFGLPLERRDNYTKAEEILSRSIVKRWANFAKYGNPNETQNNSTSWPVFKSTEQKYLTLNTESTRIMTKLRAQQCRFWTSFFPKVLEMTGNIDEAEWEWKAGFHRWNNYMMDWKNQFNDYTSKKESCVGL
Procedure: as §1, §2

[2] = target: T3, AChE associated with β-amyloid plaques (Homo sapiens, UniProt P22303); experiment: Karnovsky-Roots histochemical staining, AChE associated with plaques (pH 6.8); format: biochemical; details: for Inhibition of AChE staining associated with plaques (in words): pH 6.8, compared with control staining; for Inhibition of staining, AChE pH 6.8: plaques, AD orbitofrontal cortex, average ranking of four AD cases, compound 0.25-1.3 mM in KR solution
T3 construct: post-mortem brain tissues from sex- and age-matched AD cases; tissue Maritime Brain Tissue Bank, Dalhousie University; host or cells: post-mortem human AD brain: orbitofrontal cortex (plaques, pH 6.8) and thalamus (normal neural elements, pH 8.0)
T3 sequence (P22303 32-614): as the sequence (P22303 32-614) above
Procedure: (§3) Histochemical staining for AChE and BChE activity in brain tissues was done using a modified Karnovsky-Roots (KR) method. Tissue sections were first rinsed for 30 min in 0.1 M PB, followed by 30 min in 0.1 M PB with […] hydrogen peroxide (H2O2) and then rinsed for 30 min with 0.1 M maleate buffer (MB; pH 6.8 or […]) prior to incubation in the KR solution. Sections stained for AChE were incubated in the KR solution for 1.75 hr, while sections stained for BChE were incubated for 2.5 hr. The KR staining solution contained 0.5 mM sodium citrate, 0.47 mM cupric sulfate, and 0.05 mM of potassium ferricyanide, a thioester ChE substrate and ChE inhibitor in MB at pH 6.8 to stain for ChEs associated with AD pathology or pH 8.0 to stain for ChEs associated with normal neural elements. For AChE staining, ATChI (0.4 mM) was used as the substrate and ethopropazine (0.06 mM) was used to inhibit BChE. For BChE staining, BTChI (0.8 mM) was used as the substrate and BW 284c51 (0.01 mM) was used to inhibit AChE. Following incubation in KR, sections were rinsed in distilled water (dH2O) for 30 min, incubated in a 0.1% cobalt chloride solution in dH2O for 10 min, and rinsed again in dH20 for 30 min. Sections were incubated in 1.39 mM 3,3’-diaminobenzidine tetrahydrochloride (DAB) in PB (pH 7.4) for 5 min and then developed using 50 μL of 0.3% H2O2 per mL of DAB solution. The reaction was stopped by a 30 min rinse in 0.01 M acetate buffer (pH 3.3). Stained sections were mounted on glass slides, cover-slipped and examined with brightfield microscopy.
(§4) To evaluate the interactions of senolytic and nootropic compounds with ChEs in brain tissues, the above histochemical technique was used with minor variations to the KR incubation. Senolytic and nootropic compounds were dissolved in 50% aqueous acetonitrile to make a stock solution. […] Following incubation for AChE (1.75 hr) and BChE (2.5 hr) in the KR solution, staining was completed as described above.
(§5) Positive controls included staining for BChE and AChE activity at pH 6.8 and pH 8.0 without any additions. Negative controls were utilized to validate staining specificity of BChE and AChE at pH 6.8 and pH 8.0, where the substrates (BTChI and ATChI, respectively) were omitted, as previously described. […] Briefly, 50% aqueous acetonitrile was added to the KR solution, without any senolytic or nootropic compound, while maintaining the same volume as the compound additives.
(§6) A qualitative method was used to evaluate the effect of senolytic and nootropic compounds on ChE histochemical staining, as done previously. Inhibition of staining intensity was categorized as follows: No reduction (-), slight (x), moderate (xx), or strong (xxx). Tissue sections were analyzed using brightfield microscopy on an Olympus BX50F microscope (Olympus Optical Co., Ltd., Tokyo, Japan). Photomicrographs of the stained tissue sections were taken using a Zeiss Axio Scan.Z1 slide scanner with Zen 3.1 Blue Edition software (Carl Zeiss Canada Ltd., Toronto, Ontario, Canada). Figures were assembled using Adobe Photoshop (CS 5, Version 12.0, San Diego, CA, USA). The brightness of each individual image was adjusted to ensure backgrounds matched for analysis.

[3] = target: T4, BChE associated with β-amyloid plaques (Homo sapiens, UniProt P06276); experiment: Karnovsky-Roots histochemical staining, BChE associated with plaques (pH 6.8); format: biochemical; details: for Inhibition of BChE staining associated with plaques (in words): pH 6.8, compared with control staining; for Inhibition of staining, BChE pH 6.8: plaques, AD orbitofrontal cortex, average ranking of four AD cases, compound 0.25-1.3 mM in KR solution
T4 construct: post-mortem brain tissues from sex- and age-matched AD cases; tissue Maritime Brain Tissue Bank, Dalhousie University; host or cells: post-mortem human AD brain: orbitofrontal cortex (plaques, pH 6.8) and thalamus (normal neural elements, pH 8.0)
T4 sequence (P06276 29-602): as the sequence (P06276 29-602) above
Procedure: as §3, §4, §5, §6

[4] = target: T5, AChE associated with normal neural elements (Homo sapiens, UniProt P22303); experiment: Karnovsky-Roots histochemical staining, AChE associated with normal neural elements (pH 8.0); format: biochemical; details: for Inhibition of staining, AChE pH 8.0: normal neural elements, AD thalamus, average ranking of four AD cases, compound 0.25-1.3 mM in KR solution; for Inhibition of AChE staining associated with normal neural elements (in words): pH 8.0, relative to controls
T5 construct: post-mortem brain tissues from sex- and age-matched AD cases; tissue Maritime Brain Tissue Bank, Dalhousie University; host or cells: post-mortem human AD brain: orbitofrontal cortex (plaques, pH 6.8) and thalamus (normal neural elements, pH 8.0)
T5 sequence (P22303 32-614): as the sequence (P22303 32-614) above
Procedure: as §3, §4, §5, §6

[5] = target: T6, BChE associated with normal neural elements (Homo sapiens, UniProt P06276); experiment: Karnovsky-Roots histochemical staining, BChE associated with normal neural elements (pH 8.0); format: biochemical; details: for Inhibition of staining, BChE pH 8.0: normal neural elements, AD thalamus, average ranking of four AD cases, compound 0.25-1.3 mM in KR solution; for Inhibition of BChE staining associated with normal neural elements (in words): pH 8.0, relative to controls
T6 construct: post-mortem brain tissues from sex- and age-matched AD cases; tissue Maritime Brain Tissue Bank, Dalhousie University; host or cells: post-mortem human AD brain: orbitofrontal cortex (plaques, pH 6.8) and thalamus (normal neural elements, pH 8.0)
T6 sequence (P06276 29-602): as the sequence (P06276 29-602) above
Procedure: as §3, §4, §5, §6

AChE = details: ref Katalinić et al. [60]; read-out: Literature AChE Ki values; cited from earlier work
BChE = details: read-out: Literature BChE Ki values, cited from earlier work
[6] = tested on: ChE associated with plaques; details: ref [37]; cited from earlier work
[7] = tested on: ChE associated with normal neural elements; details: ref [37]; cited from earlier work
[8] = purified human serum BChE, BTChI substrate, pH 7.0, triplicate

| Compound | Ki (recombinant human AChE) | AChE mode of inhibition (recombinant human AChE) | BChE mode of inhibition [1] | Inhibition of AChE staining associated with plaques (in words) [2] | Inhibition of staining, AChE pH 6.8 [2] | Inhibition of BChE staining associated with plaques (in words) [3] | Inhibition of staining, BChE pH 6.8 [3] | Inhibition of staining, AChE pH 8.0 [4] | Inhibition of AChE staining associated with normal neural elements (in words) [4] | Inhibition of staining, BChE pH 8.0 [5] | Inhibition of BChE staining associated with normal neural elements (in words) [5] | other results |
| --- | --- | --- | --- | --- | --- | --- | --- | --- | --- | --- | --- | --- |
| Cc1nc(Nc2ncc(C(=O)Nc3c(C)cccc3Cl)s2)cc(N2CCN(CCO)CC2)n1 [Dasatinib (1), dasatinib] | 28.2 µM | (Mixed Non-competitive) | (Mixed Non-competitive) | reduced by varying degrees | xx/x^a | complete inhibition | xxx (xxx (strong inhibition)) | - (– (no inhibition)) | no inhibition | - (– (no inhibition)) | no inhibition | – |
| O=c1c(O)c(-c2ccc(O)c(O)c2)oc2cc(O)ccc12 [Fisetin (3), fisetin] | – | competitive inhibition | uncompetitive inhibition | – | – | – | – | – | – | – | – | Ki (recombinant human AChE; recombinant human AChE, ATChI substrate, pH 7.0, triplicate, read-out: Experimental AChE Ki): 110 µM; Ki ([1]; purified human serum BChE, BTChI substrate, pH 7.0, triplicate, read-out: Experimental BChE Ki): 94.4 µM; Ki (AChE): 100 µM; Ki (BChE; ref Katalinić et al. [60]): 94.2 µM |
| COc1ccc(COc2ccc(Cc3cnc(N)nc3N)cc2OC)cc1 [GW2580 (5), GW2580] | 71 µM | (Mixed Non-competitive) | – | did not inhibit | - (– (no inhibition)) | did inhibit | x/xx | - (– (no inhibition)) | did not inhibit | - (– (no inhibition)) | did not inhibit | Experimental BChE Ki [1, 8]: No Inhibition; Experimental BChE Ki ([1]; purified human serum BChE, BTChI substrate, pH 7.0, triplicate, listed as 5): did not inhibit |
| CN(C)CCOC(=O)COc1ccc(Cl)cc1 [Meclofenoxate Hydrochloride (6), meclofenoxate hydrochloride] | 63.2 µM | (Mixed Non-competitive) | (Mixed Non-competitive) | moderate to strong inhibition | – | slight inhibition | – | - (– (no inhibition)) | did not inhibit | - (– (no inhibition)) | did not inhibit | – |
| COC(=O)c1ccc2c(c1)NC(=O)/C2=C(\Nc1ccc(N(C)C(=O)CN2CCN(C)CC2)cc1)c1ccccc1 [Nintedanib (2), nintedanib] | 7.1 µM | (Mixed Non-competitive) | – | complete inhibition | xxx (xxx (strong inhibition)) | complete inhibition | xxx (xxx (strong inhibition)) | - (– (no inhibition)) | no inhibition | - (– (no inhibition)) | no inhibition | Experimental BChE Ki [1, 8]: No Inhibition; Experimental BChE Ki ([1]; purified human serum BChE, BTChI substrate, pH 7.0, triplicate, listed as 2): did not inhibit |
| O=c1c(O)c(-c2ccc(O)c(O)c2)oc2cc(O)cc(O)c12 [Quercetin (4), quercetin] | 62.2 µM | (Mixed Non-competitive) | (Mixed Non-competitive) | – | – | – | – | – | – | – | – | Ki (BChE; ref Katalinić et al. [60]): 68 µM; Ki (BChE; ref Orhan et al. [87]): 46.8 µM |
| COc1ccc2c3c1O[C@H]1C[C@@H](O)C=C[C@@]31CCN(C)C2 [galantamine] | – | – | – | – | – | – | – | – | – | – | – | Inhibition of ChE staining associated with plaques [6]: inhibits; Inhibition of ChE staining associated with normal neural elements [7]: inhibits |
